The values below come from US20130017600A1, “ISOLATION AND/OR PRESERVATION OF DENDRITIC CELLS FOR PROSTATE CANCER IMMUNOTHERAPY” (NORTHWEST BIOTHERAPEUTICS, INC., priority 1995, published 2013).

The subject of assay [1] is T cells (PBMC) obtained from prostate cancer patients. Nature of the assay: T cell proliferation assay (3H-TdR incorporation) with PSMA peptide alone. The assay is classed as cell-based, human. Here is the method:
One hundred thousand previously frozen T cells (designated “PBMC”) obtained from a prostate cancer patient were cultured in the presence or absence of 20
PSMA peptide in complete medium containing 10% heat-inactivated human serum and 1 unit/ml IL2. One μCi/well ^3H-Thymidine was added on day 6 and cultures were harvested 18 hours later. ^3H-TdR incorporation was counted in a liquid scintillation counter. Each experiment was done in 4 replicates.
One hundred thousand T cells, i.e. PBMC obtained from HLA-A2(+) or HLA-A2(−) prostate cancer patients were cultured in the presence or absence (i.e. “medium control”) of 20 μg PSM-P2 peptide for five (5) days in a humidified, 37° C., 5% CO2 incubator. On day 6, 1 μCi ^3H-Thymidine was added to each well. After another 24 h incubation, cells were harvested and the ^3H-TdR incorporated was counted in a liquid scintillation counter. Each experiment was done in triplicate. Results are presented in FIG. 10 as average cpm and standard error of the mean.

In assay [2] the test system is late stage prostate cancer patients. Nature of the assay: Phase 1 clinical trial: T cell proliferation pre- and post-infusion (stimulation ratio). The conditions noted are these: 7 days after first infusion; all patients of the group; FIG. 11. It counts as in vivo, human. Here is the method: A phase 1 clinical trial has been established using five treatment groups of late stage prostate cancer patients. The groups were treated as follows: Group I, received peptide PSM-P1 having amino acid sequence LLHETDSAV (SEQ. ID. NO 1) only at 0.2, 2.0 and 20.0 μg; Group II, peptide PSM-P2 having amino acid sequence ALFDIESKV (SEQ. ID. NO. 2) only at 0.2, 2.0 and 20.0 μg; Group III, 1×10^6 (#3-4) or 5×10^6 (#1, 2) autologous dendritic cells only; Group IV, up to 2×10^7 autologous dendritic cells loaded with PSM-P1 (SEQ. ID. NO. 1); and Group V, up to 2×10^7 autologous DC's loaded with PSM-P2 (SEQ. ID. NO. 2). All treatments were delivered by infusion. Patients were monitored 7 days post-infusion and their immune function was analyzed by assessing T cell proliferation pre- and post-infusion using ^3H-TdR incorporation as described above in Section 9.

Assay [3] relates to T cells proliferated as a result of the PSMA peptide. Kind of assay: Flow cytometric analysis (CD4/CD8) of T cells proliferated as a result of the PSMA peptide. It counts as cell-based, human. The note with it: expanded 5 days with 2 μM peptide and 1 unit/ml IL2; FIG. 9. On the procedure:
The T cells proliferated as a result of the PSMA peptide were expanded in culture for 5 days, in complete medium containing 2 μM PSMA peptide and 1 unit/ml Il2 for 5 days prior to harvest. One million cells were incubated for 30 minutes on ice with anti-CD4, anti-CD8 antibodies or medium alone, followed by another 30 minute incubation with fluorescein isothiocyanate labelled-2° antibody. Fluorescence-bound was analyzed in a FACScan (Becton Dickinson, San Jose, Calif.) flow cytometer as described above. The percent CD4+ and CD8+ cells were calculated. Results are illustrated in FIG. 9.

Assay [4] relates to previously frozen T cells (PBMC) of a prostate cancer patient. Nature of the assay: T cell proliferation assay with previously cryopreserved autologous dendritic cells and purified PSMA. The assay is classed as cell-based, human. The conditions noted are these: previously cryopreserved DC's plus 5 μl/well purified PSMA; vs antigen alone or DC's alone; FIG. 6. On the procedure:
Dendritic cells were isolated from PBMC of a prostate cancer patient as described above in Section 6 and cultured, as described above, in Section 6, for 7 days in the presence of 500 units/ml GM-CSF and IL-4.
On day 7, the isolated DC's were harvested and cryopreserved using 90% fetal calf serum and 10% dimethylsulfoxide. The cryopreserved DC's were stored frozen for a period of time, thawed in a 37° C. water bath and transferred to a 15 ml polypropylene tube and centrifuged at 1200 rpm for 5 min. The thawed DC's were then resuspended in medium containing 10% heat-inactivated human serum and counted.
One hundred thousand previously frozen T cells obtained from peripheral blood of the same prostate cancer patient (PBMC) were cultured in the presence or absence of 10^4 DC's together with 5 μl/well purified PSMA (see Section 6.1.4 above) in a total volume of 200 μl medium containing 10% heat-inactivated human serum and 1 unit/ml IL-2. One μCi/well ^3H-Thymidine was added on day 6 and cultures were harvested 18 hours later. ^3H-TdR incorporation was counted in a liquid scintillation counter. Each experiment was done in 4 replicates. The average cpm and standard deviation are shown in the graph.

The test system of assay [5] is previously cryopreserved autologous T cells (PBMC) of a prostate cancer patient. Kind of assay: T cell proliferation assay with extended life span (EBV-transformed) dendritic cells. The note with it: antigen presented by extended life span DC's; TT 500 ng/ml or LNCaP lysate equivalent of 10^4 cells/ml; FIG. 7. The assay is classed as cell-based, human.

Consider “ALFDIESKV [PSM-P2, peptide corresponding to amino acid residues 711-719 of PSMA]”, for which, in assay [1] (20 μg peptide, 5 days, FIG. 10), the “T cell proliferation (3H-TdR incorporation), HLA-A2(−) T cells” value is recorded as “less dramatic enhanced T cell proliferation”. In assay [1] (20 μg peptide, 5 days, vs medium control, FIG. 10), the “T cell proliferation (3H-TdR incorporation), HLA-A2(+) T cells” value is reported as “greatly enhanced cell proliferation”.
Take “LLHETDSAV [PSM-P1, peptide corresponding to amino acid residues 4-12 of PSMA]”: the “increase in T cell proliferation post- vs pre-infusion” value in assay [2] is given as “did not demonstrate any increase in T cell proliferation”. The “T cell proliferation (3H-TdR incorporation)” value in assay [1] (PBMC of a prostate cancer patient with peptide vs absence of peptide, FIG. 8) is “greatly enhanced T cell proliferation”. For the same substance, the “CTL's share of the T cells stimulated by the peptide” value in assay [3] is “about 41%”.
As to “PSMA: purified prostate specific membrane antigen, immunoprecipitated from human semen with monoclonal antibody 7E11-C5”, the “3HTdR incorporation (T cell proliferation)” value is “highly significant increase” in assay [4] and “significantly increased” in assay [5].
